Data on 20 molecules can be found in US6841567B1, “Cyclic substituted fused pyrrolocarbazoles and isoindolones” (Cephalon, Inc., priority 1999, dated 2005).

As usually defined, the IC50 is the concentration that gives 50% inhibition.

Assay [1] has as its target T1, baculovirus-expressed human trkA cytoplasmic domain (Homo sapiens, UniProt P04629).
T1 construct: baculovirus-expressed human trkA cytoplasmic domain; made in house; host or cells: baculovirus expression system
In words: Inhibition of trkA tyrosine kinase activity (ELISA-based assay). The assay is classed as biochemical. As to conditions: for IC50: 40 μM ATP; for trkA kinase activity % Inh. @ 300 nM (values in parentheses) / inhibition at 0.3 µM: 300 nM compound; for inhibition at 0.3 µM: read-out: trkA kinase activity % Inh. @ 300 nM (values in parentheses). As to the method: Selected cyclic substituted fused pyrrolocarbazole and isoindolone compounds were tested for their ability to inhibit the kinase activity of baculovirus-expressed human trkA cytoplasmic domain using an ELISA-based assay as previously described (Angeles et al., Anal. Biochem. 236: 49-55, 1996). Briefly, the 96-well microtiter plate was coated with substrate solution (recombinant human phospholipase C-γ1/glutathione S-transferase fusion protein (Rotin et al., EMBO J., 11: 559-567, 1992). Inhibition studies were performed in 100 μl assay mixtures containing 50 mM Hepes, pH 7.4, 40 μM ATP, 10 mM MnCl2, 0.1% BSA, 2% DMSO, and various concentrations of inhibitor. The reaction was initiated by addition of trkA kinase and allowed to proceed for 15 minutes at 37° C. An antibody to phosphotyrosine (UBI) was then added, followed by a secondary enzyme-conjugated antibody, alkaline phosphatase-labelled goat antII-mouse IgG (Bio-Rad). The activity of the bound enzyme was measured via an amplified detection system (Gibco-BRL). Inhibition data were analyzed using the sigimoidal dose-response (variable slope) equation in GraphPad Prism.
(ELISA stands for enzyme-linked immunosorbent assay.)

Assay [2] deals with T2, trkA (NIH3T3 cells transfected with trkA) (Homo sapiens, UniProt P04629).
T2 construct: expressed in transfected cells; host or cells: NIH3T3
Nature of the assay: Inhibition of NGF-stimulated trk phosphorylation in a whole cell preparation. The assay is classed as cell-based. The arrangement: key to Cell Score @ 100 nM (percent decrease in trk protein band): 0=no decrease; 1=1-25%; 2=26-49%; 3=50-75%; 4=76-100%. As to conditions: NGF 10 ng/ml; for Cell Score @ 100 nM (percent decrease in trk protein band): 100 nM compound; for Cell Score @ 1 uM (percent decrease in trk protein band): 1 uM compound. The procedure: NIH3T3 cells transfected with trkA were grown in 100 mm dishes. Subconfluent cells were serum-starved by replacing media with serum-free 0.05% BSA-DMEM containing compound (100 nM and 1 μM) or DMSO (added to controls) for one hour at 37° C. NGF (Harlan/Bioproducts for Science) was then added to the cells at a concentration of 10 ng/ml for 5 minutes. Cells were lysed in buffer containing detergent and protease inhibitors. Clarified cell lysates were normalized to protein using BCA method and immunoprecipitated with antII-trk antibody. Polyclonal antII-trk antibody was prepared against a peptide corresponding to the 14 amino acids at the carboxy terminus of trk (Martin-Zanca et al., Mol. Cell. Biol. 9: 24-33, 1989). The immune complexes were collected on Protein A Sepharose beads (Sigma Chem. Co., St. Lois, Mo.), separated by SDS polyacrylamide gel electrophoresis (SDS-PAGE), and transferred to a polyvinylidene difluoride (PVDF) membrane. The membrane was immunoblotted with antII-phosphotyrosine antibody (UBI), followed by incubation with horseradish peroxidase coupled goat antII-mouse IgG (Bio-Rad Laboratories, Hercules, Calif.). Phosphorylated proteins were visualized using ECL (Arnersham Life Science, Inc., Arlington Heights, Ill.). The area of the trk protein band was measured and compared to NGF-stimulated control. The inhibition scoring system used, based on percent decrease in trk protein band, was as follows: 0=no decrease; 1=1-25%; 2=26-49%; 3=50-75%; 4=76-100%.

For assay [3], the target named is protein kinase C (UBI; mixed isozymes of a, b, g). Nature of the assay: Inhibition of protein kinase C activity (Millipore Multiscreen TCA in-plate assay). As to conditions: for Protein kinase C activity, values in parentheses: concentration not given. The assay is classed as biochemical. As to the method:
Protein kinase C activity was assessed using the Millipore Multiscreen TCA “in-plate” assay as described in Pitt, A. M. and Lee, C. (J. Biomol. Screening, 1: 47-51, 1996). Assays were performed in 96-well Multiscreen-DP plates (Millipore). Each […] assay mixture contained 20 mM Hepes, pH 7.4, 10 mM MgCl2, 2.5 mM EGTA, 2.5 mM CaCl2, […] phosphatidyl serine, […] diolein, […] histone H-1 (Fluka), […] [γ-^32P]ATP, 1.5 ng protein kinase C (UBI; mixed isozymes of a, b, g), 0.1% BSA, 2% DMSO, and test cyclic substituted fused pyrrolocarbazole compound. The reaction was allowed to proceed for 10 min at 37° C., then quenched by adding ice cold 50% trichloroacetic acid. The plates were allowed to equilibrate for 30 min at 4° C., then washed with ice cold 25% TCA. Scintillation cocktail was added to the plates, and the radioactivity was determined using Wallac MicroBeta 1450 PLUS scintillation counter. The IC50 values were calculated by fitting the data to the sigmoidal dose-response (variable slope) equation in GraphPad Prism.

In assay [4] the target is T3, VEGF receptor (human flk-1, KDR, VEGFR2) kinase domain (Homo sapiens, UniProt P35968).
T3 construct: VEGF receptor (human flk-1, KDR, VEGFR2) kinase domain; made in house; host or cells: baculovirus expression system
Nature of the assay: Inhibition of vascular endothelial growth factor receptor kinase activity (ELISA). As to conditions: for inhibition at 0.3 µM: 300 nM compound, read-out: VEGF receptor kinase activity % Inh. @ 300 nM (values in parentheses); for IC50: 40 μM ATP. In kind it is biochemical. The procedure: Cyclic substituted fused pyrrolocarbazole and isoindolone compounds were examined for their inhibitory effects on the kinase activity of baculovirus-expressed VEGF receptor (human flk-1, KDR, VEGFR2) kinase domain using the procedure described for the trkA kinase ELISA assay described above. The kinase reaction mixture, consisting of 50 mM Hepes, pH 7.4, 40 μM ATP, 10 mM MnCl2, 0.1% BSA, 2% DMSO, and various concentrations of inhibitor, was transferred to PLC-γ/GST-coated plates. VEGFR kinase was added and the reaction was allowed to proceed for 15 min. at 37 C. Detection of phosphorylated product was accomplished by addition of antII-phosphotyrosine antibody (UBI). A secondary enzymeconjugated antibody was delivered to capture the antibody-phosphorylated PLC-γ/GST complex. The activity of the bound enzyme was measured via an amplified detection system (Gibco-BRL). Inhibition data were analyzed using the sigmoidal dose-response (variable slope) equation in GraphPad Prism.

T1 sequence (P04629 440-796 limits assumed): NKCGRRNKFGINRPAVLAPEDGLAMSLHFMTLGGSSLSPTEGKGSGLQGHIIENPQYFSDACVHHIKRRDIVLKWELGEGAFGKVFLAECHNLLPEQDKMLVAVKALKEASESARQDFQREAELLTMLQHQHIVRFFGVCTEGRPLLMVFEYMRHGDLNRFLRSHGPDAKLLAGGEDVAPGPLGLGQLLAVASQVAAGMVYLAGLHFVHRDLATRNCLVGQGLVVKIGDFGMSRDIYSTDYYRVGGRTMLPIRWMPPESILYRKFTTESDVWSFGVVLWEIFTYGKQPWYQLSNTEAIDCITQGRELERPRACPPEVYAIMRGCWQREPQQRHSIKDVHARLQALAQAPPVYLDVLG
T3 sequence (P35968 834-1162 limits assumed): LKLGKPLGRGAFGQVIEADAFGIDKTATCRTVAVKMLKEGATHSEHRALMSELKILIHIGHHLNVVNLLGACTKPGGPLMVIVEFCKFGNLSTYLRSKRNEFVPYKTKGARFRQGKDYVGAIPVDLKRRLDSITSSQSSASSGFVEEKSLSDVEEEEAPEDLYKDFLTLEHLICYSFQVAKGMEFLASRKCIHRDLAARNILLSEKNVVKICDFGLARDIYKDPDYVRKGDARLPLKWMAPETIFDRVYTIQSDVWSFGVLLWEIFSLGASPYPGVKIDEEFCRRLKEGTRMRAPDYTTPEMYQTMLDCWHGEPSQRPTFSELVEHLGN
T2 sequence (P04629 33-796, species assumed): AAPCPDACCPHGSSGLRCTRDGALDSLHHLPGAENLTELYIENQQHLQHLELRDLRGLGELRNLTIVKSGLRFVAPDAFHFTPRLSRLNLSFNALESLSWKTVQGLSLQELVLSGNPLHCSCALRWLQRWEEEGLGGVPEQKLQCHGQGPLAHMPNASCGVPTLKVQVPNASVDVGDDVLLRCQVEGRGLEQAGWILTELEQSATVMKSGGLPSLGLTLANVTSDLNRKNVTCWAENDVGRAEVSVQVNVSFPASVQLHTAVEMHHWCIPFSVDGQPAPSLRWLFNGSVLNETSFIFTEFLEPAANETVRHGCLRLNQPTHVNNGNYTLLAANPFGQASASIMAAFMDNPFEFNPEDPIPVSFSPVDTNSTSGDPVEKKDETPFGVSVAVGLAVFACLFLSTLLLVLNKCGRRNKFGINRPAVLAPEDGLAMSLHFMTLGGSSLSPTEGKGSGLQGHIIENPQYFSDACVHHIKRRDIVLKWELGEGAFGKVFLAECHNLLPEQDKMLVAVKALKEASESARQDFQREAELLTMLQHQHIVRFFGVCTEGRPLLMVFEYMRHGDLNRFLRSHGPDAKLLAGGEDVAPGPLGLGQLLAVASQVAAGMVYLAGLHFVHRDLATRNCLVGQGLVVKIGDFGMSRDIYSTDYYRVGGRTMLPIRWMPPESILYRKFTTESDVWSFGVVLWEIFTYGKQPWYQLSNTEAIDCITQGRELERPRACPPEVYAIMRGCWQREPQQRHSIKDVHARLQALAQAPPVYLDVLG

`CC1(C2c3ccccc3-c3c4c(c5c([nH]c6ccccc65)c32)CNC4=O)CCCO1` (racemic) [II-04] returned an IC50 in assay [1] of 8 nM. Also, in assay [2], the “Cell Score @ 100 nM (percent decrease in trk protein band)” value was 1 (1=1-25%) and the “Cell Score @ 1 uM (percent decrease in trk protein band)” value is listed as 2 (2=26-49%). In assay [3], this molecule returned a half-maximal inhibitory concentration (IC50) greater than 10 µM.

`COCCOCc1ccc2c(c1)c1c3c(c4c(c1n2CC1CO1)Cc1ccccc1-4)C(=O)NC3` (racemic) [II-61]: in assay [3], the IC50 amounted to 1.36 µM.

With `O=C1NCc2c1c1c(c3c2c2ccccc2n3CC2CCCCO2)Cc2ccccc2-1` (racemic) [II-62], the “trkA kinase activity % Inh. @ 300 nM (values in parentheses)” value in assay [1] was “(27) %”. Further, the “Protein kinase C activity, values in parentheses” value in assay [3] is “(27)”.

As to `O=C1NCc2c1c1c(c3c2c2ccccc2n3CC2CCCOC2)Cc2ccccc2-1` (racemic) [II-63], the “trkA kinase activity % Inh. @ 300 nM (values in parentheses)” value in assay [1] is listed as “(28) %”. In addition, the “Protein kinase C activity, values in parentheses” value in assay [3] is “(28)”.

Molecule `O=C1NCc2c1c1c(c3[nH]c4ccccc4c23)C(C2(CO)CCCO2)c2ccccc2-1` (single isomer, unassigned) [II-35] displayed an IC50 in assay [1] of 78 nM. In assay [4], the inhibition at 0.3 µM worked out at 55%. Moreover, in assay [2], the “Cell Score @ 100 nM (percent decrease in trk protein band)” value was 0 and the “Cell Score @ 1 uM (percent decrease in trk protein band)” value was 3 (3=50-75%). In assay [3], this molecule yielded a half-inhibitory concentration (IC50) greater than 10 µM.

For the molecule `O=C1NCc2c1c1c(c3[nH]c4ccccc4c23)C(C2(CO)CCCO2)c2ccccc2-1` (single isomer, unassigned) [II-36], the results for the IC50 in assay [1], in assay [4] and in assay [3] were 20 nM, 846 nM and greater than 10 µM, respectively. In addition, in assay [2], the “Cell Score @ 100 nM (percent decrease in trk protein band)” value is 1 (1=1-25%). The “Cell Score @ 1 uM (percent decrease in trk protein band)” value in assay [2] is 4 (4=76-100%).

For the molecule `O=C1NCc2c1c1c(c3[nH]c4ccccc4c23)C(C2CCC(O)O2)c2ccccc2-1` (single isomer, unassigned) [II-38], the values for the IC50 in assay [1], in assay [4] and in assay [3] were 405 nM, 5100 nM and greater than 10 µM, respectively. Besides, the “Cell Score @ 100 nM (percent decrease in trk protein band)” value in assay [2] is 2 (2=26-49%). Further, the “Cell Score @ 1 uM (percent decrease in trk protein band)” value in assay [2] is on record as 2 (2=26-49%).

Consider `O=C1NCc2c1c1c(c3[nH]c4ccccc4c23)C(C2(O)CCN(Cc3ccccc3)CC2)c2ccccc2-1` (centres unmarked) [II-02], for which the IC50 stood at 64 nM in assay [1] and 7.5 µM in assay [3].

As to `O=C1NCc2c1c1c(c3[nH]c4ccccc4c23)C(C2(O)CCOCC2)c2ccccc2-1` (centres unmarked) [II-03], the IC50 in assay [1] amounted to 72 nM; in assay [3] it was 4.07 µM.

`O=C1NCc2c1c1c(c3[nH]c4ccccc4c23)C(C2CCCO2)c2ccccc2-1` (centres unmarked) [II-07] yielded an IC50 in assay [1] of 19 nM. In addition, in assay [2], the “Cell Score @ 100 nM (percent decrease in trk protein band)” value was 1 (1=1-25%) and the “Cell Score @ 1 uM (percent decrease in trk protein band)” value is listed as 2 (2=26-49%). This molecule showed an IC50 in assay [3] of 7.12 µM.

With `CN1CCC(O)(C2c3ccccc3-c3c4c(c5c([nH]c6ccccc65)c32)CNC4=O)CC1` (centres unmarked) [II-10], the IC50 in assay [1] is 182 nM; in assay [3] it was 1.57 µM.

With `O=C1NCc2c1c1c(c3[nH]c4ccccc4c23)C(C2(O)CCSCC2)c2ccccc2-1` (centres unmarked) [II-14], the inhibition at 0.3 µM in assay [1] came to 32%. Further, in assay [3], the IC50 was greater than 10 µM.

In the case of `O=C1NCc2c1c1c(c3[nH]c4ccccc4c23)C(C2(O)CCc3ccccc3C2)c2ccccc2-1` (centres unmarked) [II-15], the inhibition at 0.3 µM in assay [1] was 26%. Besides, the IC50 in assay [3] is greater than 10 µM.

Take `O=C1NCc2c1c1c(c3[nH]c4ccccc4c23)C(C2(CO)CCCO2)c2ccccc2-1` (centres unmarked) [II-21]: the results for the IC50 in assay [1] and in assay [3] were 15 nM and greater than 10 µM, respectively. Also, the “Cell Score @ 100 nM (percent decrease in trk protein band)” value in assay [2] is on record as 2 (2=26-49%). For the same molecule, the “Cell Score @ 1 uM (percent decrease in trk protein band)” value in assay [2] was 4 (4=76-100%).

In the case of `CC1(C2c3ccccc3-c3c4c(c5c([nH]c6ccccc65)c32)CNC4=O)CC(O)(CO)CO1` (centres unmarked) [II-26], the figures for the IC50 in assay [1] and in assay [3] were 45 nM and 2.07 µM, respectively. In addition, in assay [4], the inhibition at 0.3 µM is 48%. The “Cell Score @ 100 nM (percent decrease in trk protein band)” value in assay [2] was 2 (2=26-49%). In assay [2], the “Cell Score @ 1 uM (percent decrease in trk protein band)” value is on record as 4 (4=76-100%).

For `O=C1NCc2c1c1c(c3[nH]c4ccccc4c23)C(C2(C(O)CO)CCCO2)c2ccccc2-1` (centres unmarked) [II-29], the IC50 in assay [1] worked out at 16 nM. In addition, in assay [2], the “Cell Score @ 100 nM (percent decrease in trk protein band)” value was determined as 0 and the “Cell Score @ 1 uM (percent decrease in trk protein band)” value is recorded as 4 (4=76-100%). In assay [3], half-maximal inhibition (IC50) was put at 2.08 µM.

For `O=C1CCC(CO)(C2c3ccccc3-c3c4c(c5c([nH]c6ccccc65)c32)CNC4=O)O1` (centres unmarked) [II-33], the IC50 in assay [1] came to 153 nM; in assay [3], 1.04 µM.

Consider `O=C1NCc2c1c1c(c3[nH]c4ccccc4c23)C(C2(O)CCCO2)c2ccccc2-1` (centres unmarked) [II-42], for which the IC50 in assay [1] amounted to 149 nM; in assay [4], 1390 nM; in assay [3] it was 6.23 µM.

Consider `CC1(C)COC(=O)C1(O)C1c2ccccc2-c2c3c(c4c([nH]c5ccccc54)c21)CNC3=O` (centres unmarked) [II-47], for which the half-inhibitory concentration (IC50) in assay [1] amounted to 44 nM; in assay [3], 1.53 µM. In assay [2], the “Cell Score @ 100 nM (percent decrease in trk protein band)” value is 1 (1=1-25%). In assay [2], the “Cell Score @ 1 uM (percent decrease in trk protein band)” value is listed as 3 (3=50-75%).

In the case of `COc1ccc2c(c1)C(C1(CO)CCCO1)c1c-2c2c(c3c1[nH]c1ccccc13)CNC2=O` (centres unmarked) [II-53], the IC50 came to 8 nM in assay [1], 209 nM in assay [4] and 2.21 µM in assay [3]. Further, the “Cell Score @ 100 nM (percent decrease in trk protein band)” value in assay [2] is 4 (4=76-100%). The “Cell Score @ 1 uM (percent decrease in trk protein band)” value in assay [2] is recorded as 4 (4=76-100%).
